Target: T1, human FSH receptor (Homo sapiens, UniProt P23945)
T1 construct: expressed in transfected cells
T1 sequence (P23945 18-695): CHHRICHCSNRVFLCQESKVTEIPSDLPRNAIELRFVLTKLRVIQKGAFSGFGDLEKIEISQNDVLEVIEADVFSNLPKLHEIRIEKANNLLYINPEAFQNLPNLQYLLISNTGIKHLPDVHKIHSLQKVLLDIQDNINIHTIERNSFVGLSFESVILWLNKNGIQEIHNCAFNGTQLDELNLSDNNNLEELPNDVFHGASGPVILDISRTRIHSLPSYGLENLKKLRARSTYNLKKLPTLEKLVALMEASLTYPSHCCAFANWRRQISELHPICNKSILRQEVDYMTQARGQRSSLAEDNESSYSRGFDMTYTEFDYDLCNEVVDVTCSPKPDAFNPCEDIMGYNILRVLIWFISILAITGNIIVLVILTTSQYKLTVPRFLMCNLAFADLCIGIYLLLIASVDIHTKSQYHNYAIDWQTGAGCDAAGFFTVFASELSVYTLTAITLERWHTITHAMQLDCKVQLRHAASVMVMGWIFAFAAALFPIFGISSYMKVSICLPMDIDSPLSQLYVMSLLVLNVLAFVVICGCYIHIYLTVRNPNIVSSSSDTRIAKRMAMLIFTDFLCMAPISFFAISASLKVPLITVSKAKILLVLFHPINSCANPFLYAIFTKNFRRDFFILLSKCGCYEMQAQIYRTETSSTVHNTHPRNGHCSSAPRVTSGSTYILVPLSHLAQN
Assay: hFSHRago (CHO luc): agonistic activity at the human FSH receptor expressed in CHO cells, CRE-luciferase reporter
Format: cell-based
Details: CHO cells stably transfected with human FSH receptor and CRE/luciferase reporter; 4 hours of incubation

| SMILES | EC50 |
| --- | --- |
| COc1cc2c(cc1OC)-c1c(-c3cccs3)cc(C(=O)N3CC[C@@H](NC(=O)N(C)C)C3)n1CC2 [Example 106, 3-[(R)-1-(8,9-Dimethoxy-1-thiophen-2-yl-5,6-dihydro-pyrrolo[2,1-α]isoquinoline-3-carbonyl)-pyrrolidin-3-yl]-1,1-dimethyl-urea] | 755 nM |
| CCN(C(=O)c1cc(-c2ccsc2)c2n1CCc1cc(Br)c(OC)cc1-2)C(C)C [Example 117, 8-Bromo-9-methoxy-1-thiophen-3-yl-5,6-dihydro-pyrrolo[2,1-α]isoquinoline-3-carboxylic acid ethyl-isopropyl-amide] | 1100 nM |
| COc1cc2c(cc1NC(=O)CN1CCC1)-c1c(-c3cccs3)cc(C(=O)N(C)C(C)(C)C)n1CC2 [Example 97, 9-(2-Azetidin-1-yl-acetylamino)-8-methoxy-1-thiophen-2-yl-5,6-dihydro-pyrrolo[2,1-α]isoquinoline-3-carboxylic acid tert-butyl-methyl-amide] | 4 nM |
| COc1cc2c(cc1CC(C)C)-c1c(-c3cccs3)cc(C(=O)N(C)C(C)(C)C)n1CC2 [Example 58c, 9-Isobutyl-8-methoxy-1-thiophen-2-yl-5,6-dihydro-pyrrolo[2,1-α]isoquinoline-3-carboxylic acid tert-butyl-methyl-amide] | 4.3 nM |
| COc1cc2c(cc1N1CCN(C(C)=O)CC1)-c1c(-c3cccs3)cc(C(=O)N(C)C(C)(C)C)n1CC2 [Example 53, 9-(4-Acetyl-piperazin-1-yl)-8-methoxy-1-thiophen-2-yl-5,6-dihydro-pyrrolo[2,1-α]isoquinoline-3-carboxylic acid tert-butyl-methyl-amide] | 678 nM |
| COc1cc2c(cc1OC(C)C)-c1c(-c3cccs3)cc(C(=O)N[C@@H]3CCCN(C(C)=O)C3)n1CC2 [Example 34c, 9-Isopropoxy-8-methoxy-1-thiophen-2-yl-5,6-dihydro-pyrrolo[2,1-α]isoquinoline-3-carboxylic acid ((R)-1-acetyl-piperidin-3-yl)-amide] | 251 nM |
| COc1cc2c(cc1OC1CCCCO1)-c1c(-c3cccs3)cc(C(=O)N(C)C(C)(C)C)n1CC2 (stereo not drawn) [Example 69, 8-Methoxy-9-(tetrahydro-pyran-2-yloxy)-1-thiophen-2-yl-5,6-dihydro-pyrrolo[2,1-α]isoquinoline-3-carboxylic acid tert-butyl-methyl-amide] | 6.9 nM |
| COc1cc2c(cc1OCCN=[N+]=[N-])-c1c(-c3cccs3)cc(C(=O)N(C)C(C)(C)C)n1CC2 [Example 65f, 9-(2-Azido-ethoxy)-8-methoxy-1-thiophen-2-yl-5,6-dihydro-pyrrolo[2,1-α]isoquinoline-3-carboxylic acid tert-butyl-methyl-amide] | 7.1 nM |
| COc1cc2ccn3c(C(=O)N4CCCN(C(=O)C5CCC5)CC4)cc(-c4cccs4)c3c2cc1OC [Example 111b, (4-Cyclobutanecarbonyl-[1,4]diazepan-1-yl)-(8,9-dimethoxy-1-thiophen-2-yl-pyrrolo[2,1-α]isoquinolin-3-yl)-methanone] | 4.9 nM |
| COc1cc2c(cc1OC(C)C)-c1c(-c3cccs3)cc(C(=O)C(C)N3CCCN(C(C)=O)CC3)n1CC2 (stereo not drawn) [Example 49, 2-(4-Acetyl-[1,4]diazepan-1-yl)-1-(9-isopropoxy-8-methoxy-1-thiophen-2-yl-5,6-dihydro-pyrrolo[2,1-α]isoquinolin-3-yl)-propan-1-one] | 200 nM |
| COc1cc2c(cc1OCCN(C)C)-c1c(-c3cccs3)cc(C(=O)N(C)C(C)(C)C)n1CC2 [Example 73, 9-(2-Dimethylamino-ethoxy)-8-methoxy-1-thiophen-2-yl-5,6-dihydro-pyrrolo[2,1-α]isoquinoline-3-carboxylic acid tert-butyl-methyl-amide; trifluoro acetic acid] | 118 nM |
| CCN(C(=O)c1cc(-c2cccs2)c2n1CCc1cc(OC)c(OC(C)C)cc1-2)[C@@H]1CCCN(C(=O)C2CCC2)C1 [Example 33d, 9-Isopropoxy-8-methoxy-1-thiophen-2-yl-5,6-dihydro-pyrrolo[2,1-α]isoquinoline-3-carboxylic acid ((R)-1-cyclobutanecarbonyl-piperidin-3-yl)-ethyl-amide] | 279 nM |
| COc1cc2c(cc1OC)-c1c(-c3cccs3)cc(C(=O)N3CCC[C@@H](N(C)C(C)=O)C3)n1CC2 [Example 107, N-[(R)-1-(8,9-Dimethoxy-1-thiophen-2-yl-5,6-dihydro-pyrrolo[2,1-α]isoquinoline-3-carbonyl)-piperidin-3-yl]-N-methyl-acetamide] | 30.9 nM |
| COc1cc2c(cc1OC(C)C)-c1c(-c3cccs3)cc(C(=O)N3CC4CC(C3)CN(C(=O)C3CCC3)C4)n1CC2 [Example 22, (7-Cyclobutanecarbonyl-3,7-diaza-bicyclo[3.3.1]non-3-yl)-(9-isopropoxy-8-methoxy-1-thiophen-2-yl-5,6-dihydro-pyrrolo[2,1-α]isoquinolin-3-yl)-methanone] | 8.9 nM |
| CC#Cc1cc2c(cc1OC)CCn1c(C(=O)N(C)C(C)(C)C)cc(-c3cccs3)c1-2 [Example 85b, 8-Methoxy-9-prop-1-ynyl-1-thiophen-2-yl-5,6-dihydro-pyrrolo[2,1--α]isoquinoline-3-carboxylic acid tert-butyl-methyl-amide] | 2.7 nM |
| COc1cc2c(cc1CC(C)C)-c1c(-c3cccs3)cc(C(=O)N(C)C(C)(C)CO)n1CC2 [Example 81, 9-Isobutyl-8-methoxy-1-thiophen-2-yl-5,6-dihydro-pyrrolo[2,1-α]isoquinoline-3-carboxylic acid (2-hydroxy-1,1-dimethyl-ethyl)-methyl-amide] | 6 nM |
| COc1cc2c(cc1OC)-c1c(-c3cccs3)cc(C(=O)N3CCC[C@H](NC(=O)C4CCC4)C3)n1CC2 [Example 105, Cyclobutanecarboxylic acid [(S)-1-(8,9-dimethoxy-1-thiophen-2-yl-5,6-dihydro-pyrrolo[2,1-α]isoquinoline-3-carbonyl)-piperidin-3-yl]-amide] | 1730 nM |
| COc1cc2c(cc1C(=O)NCCO)-c1c(-c3cccs3)cc(C(=O)N(C)C(C)(C)C)n1CC2 [Example 87, 8-Methoxy-1-thiophen-2-yl-5,6,6a,10a-tetrahydro-pyrrolo[2,1-α]isoquinoline-3,9-dicarboxylic acid 3-(tert-butyl-methyl-amide) 9-[(2-hydroxy-ethyl)-amide]] | 23.9 nM |
| CCN(C(=O)c1cc(-c2cccs2)c2n1CCc1c-2cc(OC)c(OC)c1C)C(C)C [Example 114, 8,9-Dimethoxy-7-methyl-1-thiophen-2-yl-5,6-dihydro-pyrrolo[2,1-α]isoquinoline-3-carboxylic acid ethyl-isopropyl-amide] | 321 nM |
| COc1cc2c(cc1OC(C)C)-c1c(-c3cccs3)c(CO)c(C(=O)N(C)C(C)(C)C)n1CC2 [Example 40, 2-Hydroxymethyl-9-isopropoxy-8-methoxy-1-thiophen-2-yl-5,6-dihydro-pyrrolo[2,1-α]isoquinoline-3-carboxylic acid tert-butyl-methyl-amide] | 8.8 nM |
| CCCCN1CCN(C(=O)c2cc(-c3cccs3)c3n2CCc2cc(OC)c(OCC(=O)OCC)cc2-3)CCC1=O [Example 14c, [3-(4-Butyl-5-oxo-[1,4]diazepane-1-carbonyl)-8-methoxy-1-thiophen-2-yl-5,6-dihydro-pyrrolo[2,1-α]isoquinolin-9-yloxy]-acetic acid ethyl ester] | 11 nM |
